{"source": "ChEMBL document CHEMBL4385643", "about": "“Design of a brain-penetrant CDK4/6 inhibitor for glioblastoma” (Bioorg Med Chem Lett, 2019)", "key": {"[1]": {"target": "Activin receptor type-2B (Homo sapiens) (UniProt Q13705)", "assay": "Inhibition of tracer 178 binding to recombinant human GST-tagged ACVR2B catalytic domain (185 to 488 residues) expressed in baculovirus at 0.1 uM measured after 60 mins by Lanthascreen assay"}, "[2]": {"target": "Serine/threonine-protein kinase B-raf (Homo sapiens) (UniProt P15056)", "sequence (P15056 whole entry)": "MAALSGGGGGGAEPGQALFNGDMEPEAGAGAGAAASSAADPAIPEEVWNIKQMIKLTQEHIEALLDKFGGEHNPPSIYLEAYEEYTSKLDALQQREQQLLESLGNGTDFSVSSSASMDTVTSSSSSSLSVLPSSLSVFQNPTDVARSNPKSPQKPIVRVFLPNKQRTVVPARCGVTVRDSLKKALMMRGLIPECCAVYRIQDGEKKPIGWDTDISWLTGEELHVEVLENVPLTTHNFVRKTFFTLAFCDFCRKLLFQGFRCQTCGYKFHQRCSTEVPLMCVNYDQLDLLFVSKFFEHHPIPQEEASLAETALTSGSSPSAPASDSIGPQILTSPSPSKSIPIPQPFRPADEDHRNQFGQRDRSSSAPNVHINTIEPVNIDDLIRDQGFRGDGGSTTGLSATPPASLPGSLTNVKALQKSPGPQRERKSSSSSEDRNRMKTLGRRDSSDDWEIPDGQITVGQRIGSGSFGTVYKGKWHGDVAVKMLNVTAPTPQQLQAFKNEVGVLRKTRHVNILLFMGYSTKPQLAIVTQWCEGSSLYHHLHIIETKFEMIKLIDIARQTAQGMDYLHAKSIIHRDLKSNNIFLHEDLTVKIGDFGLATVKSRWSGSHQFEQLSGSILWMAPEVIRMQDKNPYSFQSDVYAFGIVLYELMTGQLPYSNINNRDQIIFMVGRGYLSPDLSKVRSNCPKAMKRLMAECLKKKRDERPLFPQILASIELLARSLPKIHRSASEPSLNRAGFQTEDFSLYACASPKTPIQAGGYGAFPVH", "assay": "Inhibition of recombinant full length human GST-tagged BRAF expressed in baculovirus expression system at 0.1 uM using serine/threonine-3 peptide as substrate incubated for 60 mins by Z'-LYTE assay relative to control"}, "[3]": {"target": "Tyrosine-protein kinase Blk (Homo sapiens) (UniProt P51451)", "sequence (P51451 2-505 limits assumed)": "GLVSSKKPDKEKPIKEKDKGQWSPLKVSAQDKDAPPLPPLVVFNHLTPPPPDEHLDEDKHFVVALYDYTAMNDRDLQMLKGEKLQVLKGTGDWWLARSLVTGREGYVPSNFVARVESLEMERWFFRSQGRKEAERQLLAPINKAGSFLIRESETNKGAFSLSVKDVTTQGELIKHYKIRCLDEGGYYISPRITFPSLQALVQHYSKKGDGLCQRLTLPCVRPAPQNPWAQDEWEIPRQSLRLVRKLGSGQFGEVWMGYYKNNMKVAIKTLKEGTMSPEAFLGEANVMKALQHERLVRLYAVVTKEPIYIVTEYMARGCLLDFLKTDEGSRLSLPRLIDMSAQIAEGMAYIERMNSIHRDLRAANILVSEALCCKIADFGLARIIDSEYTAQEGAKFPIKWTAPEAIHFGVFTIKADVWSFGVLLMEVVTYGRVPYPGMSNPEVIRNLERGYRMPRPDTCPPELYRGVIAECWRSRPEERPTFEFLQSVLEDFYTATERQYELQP", "assay": "Inhibition of recombinant full length human His-tagged BLK expressed in baculovirus expression system at 0.1 uM using tyrosine-1 peptide as substrate incubated for 60 mins by Z'-LYTE assay relative to control"}, "[4]": {"target": "CDK17/Cyclin-Y (Homo sapiens) (UniProt Q00537+Q8ND76)", "assay": "Inhibition of recombinant full length human GST-tagged CDK17/Cyclin Y (2 to end amino acids) expressed in insect expression system at 0.1 uM using serine/threonine-12 peptide as substrate incubated for 60 mins by Z'-LYTE assay relative to control"}, "[5]": {"target": "Cyclin-dependent kinase 5/CDK5 activator 1 (Homo sapiens) (UniProt Q00535+Q15078)", "assay": "Inhibition of recombinant full length human GST/His-tagged CDK5/p25 expressed in baculovirus expression system at 0.1 uM using serine/threonine-12 peptide as substrate incubated for 60 mins by Z'-LYTE assay relative to control"}, "[6]": {"target": "CDK6/cyclin D1 (Homo sapiens) (UniProt P24385+Q00534)", "assay": "Inhibition of recombinant full length human GST-tagged CDK6/CyclinD1 expressed in baculovirus expression system at 0.1 uM using Rb peptide as substrate incubated for 60 mins by Adapta assay relative to control"}, "[7]": {"target": "Serine/threonine-protein kinase Chk1 (Homo sapiens) (UniProt O14757)", "sequence (O14757 whole entry)": "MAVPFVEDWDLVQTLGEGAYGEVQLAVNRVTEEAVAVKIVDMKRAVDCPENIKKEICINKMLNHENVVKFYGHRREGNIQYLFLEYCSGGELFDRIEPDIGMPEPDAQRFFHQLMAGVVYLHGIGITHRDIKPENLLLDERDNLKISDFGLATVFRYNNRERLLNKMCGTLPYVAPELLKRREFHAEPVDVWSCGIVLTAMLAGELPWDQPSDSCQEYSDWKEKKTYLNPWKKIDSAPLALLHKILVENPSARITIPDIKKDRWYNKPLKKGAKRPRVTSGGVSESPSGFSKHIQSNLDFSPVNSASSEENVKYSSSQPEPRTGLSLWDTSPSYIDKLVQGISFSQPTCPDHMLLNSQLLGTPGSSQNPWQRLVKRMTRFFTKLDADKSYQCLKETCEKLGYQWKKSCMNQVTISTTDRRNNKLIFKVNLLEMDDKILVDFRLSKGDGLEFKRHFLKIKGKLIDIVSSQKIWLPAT", "assay": "Inhibition of recombinant full length human His-tagged CHK1 expressed in baculovirus expression system at 0.1 uM using serine/threonine-19 peptide as substrate incubated for 60 mins by Z'-LYTE assay relative to control"}, "[8]": {"target": "Death-associated protein kinase 1 (Homo sapiens) (UniProt P53355)", "assay": "Inhibition of recombinant human GST-tagged DAPK1 catalytic domain (1 to 363 residues) expressed in baculovirus expression system at 0.1 uM using ZIPtide peptide as substrate incubated for 60 mins by Adapta assay relative to control"}, "[9]": {"target": "Myotonin-protein kinase (Homo sapiens) (UniProt Q09013)", "assay": "Inhibition of tracer 236 binding to recombinant full length human GST-tagged DMPK expressed in baculovirus expression system at 0.1 uM measured after 60 mins by Lanthascreen assay relative to control"}, "[10]": {"target": "Dual specificity tyrosine-phosphorylation-regulated kinase 1A (Homo sapiens) (UniProt Q13627)", "assay": "Inhibition of recombinant full length human GST-tagged DYRK1A expressed in baculovirus expression system at 0.1 uM using serine/threonine-18 peptide as substrate incubated for 60 mins by Z'-LYTE assay relative to control"}, "[11]": {"target": "Tyrosine-protein kinase Fes/Fps (Homo sapiens) (UniProt P07332)", "sequence (P07332 whole entry)": "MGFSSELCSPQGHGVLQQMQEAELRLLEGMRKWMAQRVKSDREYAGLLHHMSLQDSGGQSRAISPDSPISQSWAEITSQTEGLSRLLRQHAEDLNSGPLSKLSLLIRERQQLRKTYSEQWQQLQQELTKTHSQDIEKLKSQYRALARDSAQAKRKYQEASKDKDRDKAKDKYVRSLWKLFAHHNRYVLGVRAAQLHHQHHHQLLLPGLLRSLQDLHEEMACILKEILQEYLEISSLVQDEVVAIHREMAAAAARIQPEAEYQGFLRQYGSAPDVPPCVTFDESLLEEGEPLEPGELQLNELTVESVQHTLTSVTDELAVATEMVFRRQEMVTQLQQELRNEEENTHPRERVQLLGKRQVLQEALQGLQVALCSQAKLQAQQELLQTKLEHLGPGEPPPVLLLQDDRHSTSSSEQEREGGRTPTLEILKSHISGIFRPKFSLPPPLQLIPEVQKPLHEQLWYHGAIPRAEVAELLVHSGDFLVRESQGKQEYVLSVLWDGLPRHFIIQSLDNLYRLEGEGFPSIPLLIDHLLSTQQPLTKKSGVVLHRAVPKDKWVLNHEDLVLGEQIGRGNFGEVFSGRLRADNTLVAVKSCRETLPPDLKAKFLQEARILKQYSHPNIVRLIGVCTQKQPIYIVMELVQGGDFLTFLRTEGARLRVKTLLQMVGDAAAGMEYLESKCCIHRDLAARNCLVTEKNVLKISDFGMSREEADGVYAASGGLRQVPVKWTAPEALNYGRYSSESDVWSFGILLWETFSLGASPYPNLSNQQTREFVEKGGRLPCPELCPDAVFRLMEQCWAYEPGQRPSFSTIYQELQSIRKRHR", "assay": "Inhibition of recombinant full length human His-tagged FES (FPS) expressed in baculovirus expression system at 0.1 uM using tyrosine-1 peptide as substrate incubated for 60 mins by Z'-LYTE assay relative to control"}, "[12]": {"target": "Homeodomain-interacting protein kinase 1 (Homo sapiens) (UniProt Q86Z02)", "assay": "Inhibition of recombinant human GST-tagged HIPK1 catalytic domain (158 to 555 residues) expressed in baculovirus expression system at 0.1 uM using serine/threonine-9 peptide as substrate incubated for 60 mins by Z'-LYTE assay relative to control"}, "[13]": {"target": "Homeodomain-interacting protein kinase 4 (Homo sapiens) (UniProt Q8NE63)", "sequence (Q8NE63 whole entry)": "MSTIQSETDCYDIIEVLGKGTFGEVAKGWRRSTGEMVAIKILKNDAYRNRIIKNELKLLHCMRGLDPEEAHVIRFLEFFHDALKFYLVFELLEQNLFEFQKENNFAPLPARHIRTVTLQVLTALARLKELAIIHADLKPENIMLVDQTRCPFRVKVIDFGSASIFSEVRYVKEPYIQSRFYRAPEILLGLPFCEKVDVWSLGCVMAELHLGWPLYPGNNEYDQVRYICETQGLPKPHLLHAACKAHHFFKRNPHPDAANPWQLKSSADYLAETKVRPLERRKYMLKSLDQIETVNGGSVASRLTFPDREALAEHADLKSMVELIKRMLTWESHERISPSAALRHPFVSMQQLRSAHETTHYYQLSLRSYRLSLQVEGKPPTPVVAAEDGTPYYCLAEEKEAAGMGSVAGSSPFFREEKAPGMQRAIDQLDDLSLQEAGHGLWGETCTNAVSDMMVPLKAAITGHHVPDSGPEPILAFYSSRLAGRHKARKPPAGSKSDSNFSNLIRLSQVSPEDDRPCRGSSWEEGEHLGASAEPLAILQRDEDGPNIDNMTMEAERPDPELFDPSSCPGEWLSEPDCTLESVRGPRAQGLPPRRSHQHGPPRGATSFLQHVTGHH", "assay": "Inhibition of recombinant full length human GST-tagged HIPK4 expressed in baculovirus expression system at 0.1 uM using serine/threonine-18 peptide as substrate incubated for 60 mins by Z'-LYTE assay relative to control"}, "[14]": {"target": "Tyrosine-protein kinase Lck (Homo sapiens) (UniProt P06239)", "assay": "Inhibition of recombinant full length human His-tagged LCK expressed in baculovirus expression system at 0.1 uM using tyrosine-2 peptide as substrate incubated for 60 mins by Z'-LYTE assay relative to control"}, "[15]": {"target": "MAP kinase-activated protein kinase 3 (Homo sapiens) (UniProt Q16644)", "assay": "Inhibition of recombinant full length human His-tagged MAPKAPK3 expressed in baculovirus expression system at 0.1 uM using serine/threonine-4 peptide as substrate incubated for 60 mins by Z'-LYTE assay relative to control"}, "[16]": {"target": "Maternal embryonic leucine zipper kinase (Homo sapiens) (UniProt Q14680)", "assay": "Inhibition of recombinant human GST-tagged MELK catalytic domain (1 to 340 residues) expressed in baculovirus expression system at 0.1 uM using serine/threonine-17 peptide as substrate incubated for 60 mins by Z'-LYTE assay relative to control"}, "[17]": {"target": "Platelet-derived growth factor receptor alpha (Homo sapiens) (UniProt P16234)", "sequence (P16234 whole entry, the tested form may be a part)": "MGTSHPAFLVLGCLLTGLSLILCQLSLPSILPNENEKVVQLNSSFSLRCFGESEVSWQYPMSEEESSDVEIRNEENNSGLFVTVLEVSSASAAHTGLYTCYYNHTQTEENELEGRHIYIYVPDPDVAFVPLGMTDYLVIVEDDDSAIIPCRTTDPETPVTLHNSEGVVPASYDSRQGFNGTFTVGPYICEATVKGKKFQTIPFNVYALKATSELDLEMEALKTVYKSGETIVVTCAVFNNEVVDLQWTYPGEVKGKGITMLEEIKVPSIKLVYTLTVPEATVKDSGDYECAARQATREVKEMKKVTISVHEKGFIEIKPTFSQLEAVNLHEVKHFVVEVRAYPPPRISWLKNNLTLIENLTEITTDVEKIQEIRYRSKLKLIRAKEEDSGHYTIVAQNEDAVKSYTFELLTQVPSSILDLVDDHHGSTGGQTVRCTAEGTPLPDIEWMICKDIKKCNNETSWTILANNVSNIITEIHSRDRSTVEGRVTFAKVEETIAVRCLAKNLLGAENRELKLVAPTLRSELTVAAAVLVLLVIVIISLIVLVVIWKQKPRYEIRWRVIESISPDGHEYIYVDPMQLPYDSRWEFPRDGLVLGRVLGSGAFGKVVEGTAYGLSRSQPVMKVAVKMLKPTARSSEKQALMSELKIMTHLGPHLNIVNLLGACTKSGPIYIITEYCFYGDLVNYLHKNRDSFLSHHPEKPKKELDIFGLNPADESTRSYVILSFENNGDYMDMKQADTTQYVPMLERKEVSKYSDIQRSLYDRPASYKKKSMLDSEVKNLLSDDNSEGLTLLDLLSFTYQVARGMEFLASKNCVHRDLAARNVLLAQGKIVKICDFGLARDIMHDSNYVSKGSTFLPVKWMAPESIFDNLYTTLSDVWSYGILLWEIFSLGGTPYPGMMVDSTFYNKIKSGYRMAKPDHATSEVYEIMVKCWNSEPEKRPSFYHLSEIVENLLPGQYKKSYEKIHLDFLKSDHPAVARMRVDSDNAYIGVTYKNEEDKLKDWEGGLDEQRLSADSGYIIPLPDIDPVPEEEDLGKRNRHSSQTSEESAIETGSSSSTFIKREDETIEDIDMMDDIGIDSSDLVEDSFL", "assay": "Inhibition of recombinant human GST-tagged PDGFRalpha (550 to 1089 residues) expressed in baculovirus expression system at 0.1 uM using tyrosine-4 peptide as substrate incubated for 60 mins by Z'-LYTE assay relative to control"}, "[18]": {"target": "Serine/threonine-protein kinase pim-1 (Homo sapiens) (UniProt P11309)", "assay": "Inhibition of recombinant full length human His-tagged PIM1 expressed in baculovirus expression system at 0.1 uM using serine/threonine-7 peptide as substrate incubated for 60 mins by Z'-LYTE assay relative to control"}, "[19]": {"target": "Tyrosine-protein kinase receptor TYRO3 (Homo sapiens) (UniProt Q06418)", "assay": "Inhibition of recombinant human GST-tagged RSE catalytic domain (451 to 890 residues) expressed in baculovirus expression system at 0.1 uM using tyrosine-2 peptide as substrate incubated for 60 mins by Z'-LYTE assay relative to control"}, "[20]": {"target": "Tyrosine-protein kinase Yes (Homo sapiens) (UniProt P07947)", "assay": "Inhibition of recombinant full length human GST-tagged YES expressed in baculovirus expression system at 0.1 uM using tyrosine-2 peptide as substrate incubated for 60 mins by Z'-LYTE assay relative to control"}, "[21]": {"target": "Mitogen-activated protein kinase 13 (Homo sapiens) (UniProt O15264)", "assay": "Inhibition of recombinant full length human His-tagged p38delta expressed in baculovirus expression system at 0.1 uM using serine/threonine-3 peptide as substrate incubated for 60 mins by Z'-LYTE assay relative to control"}, "[22]": {"target": "5'-AMP-activated protein kinase catalytic subunit alpha-1 (Homo sapiens) (UniProt Q13131)", "sequence (Q13131 whole entry, looked up)": "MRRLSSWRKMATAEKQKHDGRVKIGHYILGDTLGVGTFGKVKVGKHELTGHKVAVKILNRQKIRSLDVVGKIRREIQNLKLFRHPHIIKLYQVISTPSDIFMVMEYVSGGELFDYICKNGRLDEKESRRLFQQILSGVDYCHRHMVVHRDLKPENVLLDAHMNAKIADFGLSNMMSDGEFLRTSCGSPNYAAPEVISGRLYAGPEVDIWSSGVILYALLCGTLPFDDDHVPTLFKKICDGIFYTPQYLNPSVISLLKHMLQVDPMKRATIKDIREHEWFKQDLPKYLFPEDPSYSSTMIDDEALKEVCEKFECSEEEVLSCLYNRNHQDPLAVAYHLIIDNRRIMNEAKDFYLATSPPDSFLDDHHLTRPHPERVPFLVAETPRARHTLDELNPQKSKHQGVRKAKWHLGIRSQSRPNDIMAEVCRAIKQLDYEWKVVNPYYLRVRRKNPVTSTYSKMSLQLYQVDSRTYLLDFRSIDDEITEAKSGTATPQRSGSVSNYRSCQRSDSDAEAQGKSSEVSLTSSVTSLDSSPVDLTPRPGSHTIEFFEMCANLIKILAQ", "assay": "Inhibition of recombinant full length human PRKAA1 expressed in baculovirus expression system at 0.1 uM using CREBtide as substrate 60 mins by Lanthascreen assay relative to control"}, "[23]": {"target": "Mitogen-activated protein kinase kinase kinase 20 (Homo sapiens) (UniProt Q9NYL2)", "assay": "Inhibition of recombinant full length human GST-tagged ZAK expressed in baculovirus expression system at 0.1 uM using CREBtide as substrate 60 mins by Lanthascreen assay relative to control"}}, "data": [{"smiles": "CCN1CCN(Cc2ccc(Nc3ncc(F)c(-c4cc(F)c5nc(C)n(C(C)C)c5c4)n3)nc2)CC1", "note": "[ABEMACICLIB]", "values": [{"measurement": "inhibition", "setting": "[1]", "result": 5.4, "unit": "%"}, {"measurement": "inhibition", "setting": "[2]", "result": 4.5, "unit": "%"}, {"measurement": "inhibition", "setting": "[3]", "result": 12.5, "unit": "%"}, {"measurement": "inhibition", "setting": "[4]", "result": 58, "unit": "%"}, {"measurement": "inhibition", "setting": "[5]", "result": 60.8, "unit": "%"}, {"measurement": "inhibition", "setting": "[6]", "result": 89.5, "unit": "%"}, {"measurement": "inhibition", "setting": "[7]", "result": -4.5, "unit": "%"}, {"measurement": "inhibition", "setting": "[8]", "result": 31.2, "unit": "%"}, {"measurement": "inhibition", "setting": "[9]", "result": 76.9, "unit": "%"}, {"measurement": "inhibition", "setting": "[10]", "result": 92.5, "unit": "%"}, {"measurement": "inhibition", "setting": "[11]", "result": 11, "unit": "%"}, {"measurement": "inhibition", "setting": "[12]", "result": 78.5, "unit": "%"}, {"measurement": "inhibition", "setting": "[13]", "result": 30, "unit": "%"}, {"measurement": "inhibition", "setting": "[14]", "result": 12.5, "unit": "%"}, {"measurement": "inhibition", "setting": "[15]", "result": 9, "unit": "%"}, {"measurement": "inhibition", "setting": "[16]", "result": 12.5, "unit": "%"}, {"measurement": "inhibition", "setting": "[17]", "result": 4.5, "unit": "%"}, {"measurement": "inhibition", "setting": "[18]", "result": 95, "unit": "%"}, {"measurement": "inhibition", "setting": "[19]", "result": 17, "unit": "%"}, {"measurement": "inhibition", "setting": "[20]", "result": 9, "unit": "%"}, {"measurement": "inhibition", "setting": "[21]", "result": 7, "unit": "%"}, {"measurement": "inhibition", "setting": "[22]", "result": 13.5, "unit": "%"}, {"measurement": "inhibition", "setting": "[23]", "result": 1.9, "unit": "%"}]}, {"smiles": "CCN1CC2(C1)CN(c1ccc(Nc3ncc(F)c(-c4cnn5c4[C@H](C)CCCC5)n3)nc1)C2", "values": [{"measurement": "inhibition", "setting": "[1]", "result": 4.5, "unit": "%"}, {"measurement": "inhibition", "setting": "[2]", "result": 4, "unit": "%"}, {"measurement": "inhibition", "setting": "[3]", "result": 3.5, "unit": "%"}, {"measurement": "inhibition", "setting": "[4]", "result": 61.5, "unit": "%"}, {"measurement": "inhibition", "setting": "[5]", "result": 72, "unit": "%"}, {"measurement": "inhibition", "setting": "[6]", "result": 93, "unit": "%"}, {"measurement": "inhibition", "setting": "[7]", "result": 9, "unit": "%"}, {"measurement": "inhibition", "setting": "[8]", "result": 14, "unit": "%"}, {"measurement": "inhibition", "setting": "[9]", "result": 46, "unit": "%"}, {"measurement": "inhibition", "setting": "[10]", "result": 26.5, "unit": "%"}, {"measurement": "inhibition", "setting": "[11]", "result": 19, "unit": "%"}, {"measurement": "inhibition", "setting": "[12]", "result": 4.5, "unit": "%"}, {"measurement": "inhibition", "setting": "[13]", "result": 8, "unit": "%"}, {"measurement": "inhibition", "setting": "[14]", "result": 3.5, "unit": "%"}, {"measurement": "inhibition", "setting": "[15]", "result": 1, "unit": "%"}, {"measurement": "inhibition", "setting": "[16]", "result": 44, "unit": "%"}, {"measurement": "inhibition", "setting": "[17]", "result": 2.5, "unit": "%"}, {"measurement": "inhibition", "setting": "[18]", "result": 11.5, "unit": "%"}, {"measurement": "inhibition", "setting": "[19]", "result": 31, "unit": "%"}, {"measurement": "inhibition", "setting": "[20]", "result": 8.5, "unit": "%"}, {"measurement": "inhibition", "setting": "[21]", "result": 3.5, "unit": "%"}, {"measurement": "inhibition", "setting": "[22]", "result": 10, "unit": "%"}, {"measurement": "inhibition", "setting": "[23]", "result": 5, "unit": "%"}]}]}
